pIC50, pKd: −log10 of the molar value.
Legend:
[1] = biological target: T1, p53 Y220C mutant protein (amino acid residues 94-293) (Homo sapiens, UniProt P04637, Y220C); assay: Surface Plasmon Resonance (SPR) assay, p53 Y220C Kd_kinetic; conditions: multi-cycle kinetics, 16 or 20 °C, pH 7.5, 1:1 binding model
T1 construct: p53 Y220C mutant protein (amino acid residues 94-293)
Procedure, shortened: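 Kd from multi-cycle SPR kinetics fitted to a 1:1 model, using 2-fold, 7-point compound series over p53 Y220C (residues 94-293). Flow 30 μL/min, 60 s association, 120 s dissociation, at 16 or 20 °C in 50 mM Tris pH 7.5, 100 mM NaCl, 1 mM DTT, 0.01% Brij35, 0.05% Tween-20, 1% DMSO.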

p53 Y220C = p53 Y220C (Homo sapiens, UniProt P04637, Y220C); assay: Luciferase Reporter Assay, p53 Y220C (NCIH1299 cells with inducible p53 Y220C and p53 response element-luciferase); assay type: cell-based; conditions: 6 hour compound treatment, read-out: Luc P53 Y220C AC50
Procedure, shortened: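 NCI-H1299 cells stably carrying a p53 response element-luciferase reporter and Tet-inducible p53 Y220C were induced with 0.5 ug/mL doxycycline for 24 h, then treated with compound for 6 h. Luminescence was read after One-Glo addition. AC50 was derived relative to 10 uM tool compound as positive control.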

NUGC3 cells (p53 Y220C) = assay: Cell Proliferation Assay (CellTiter-Glo), NUGC3 p53 Y220C; assay type: cell-based; conditions: Homo sapiens, NUGC-3, 120 h, 5 days, read-out: CTG NUGC3 P53 Y220C IC50
Procedure, shortened: (§1)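 Seeded at 250–500 cells/well, then compound-treated for 5 days; the NCIH1299 lines carry Tet-One inducible p53 Y220C or R273H transduced lentivirally. Viability by CellTiter-Glo luminescence after 10 min at room temperature; IC50 calculated.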

[2] = test system: NCIH1299-inducible p53 Y220C cells; assay: Cell Proliferation Assay (CellTiter-Glo), NCIH1299-inducible p53 Y220C; assay type: cell-based; conditions: Homo sapiens, NCI-H1299, 120 h, 5 days, read-out: CTG H1299 P53 Y220C IC50
Procedure, shortened: as §1

T1 sequence (P04637 94-293, stated change not applied): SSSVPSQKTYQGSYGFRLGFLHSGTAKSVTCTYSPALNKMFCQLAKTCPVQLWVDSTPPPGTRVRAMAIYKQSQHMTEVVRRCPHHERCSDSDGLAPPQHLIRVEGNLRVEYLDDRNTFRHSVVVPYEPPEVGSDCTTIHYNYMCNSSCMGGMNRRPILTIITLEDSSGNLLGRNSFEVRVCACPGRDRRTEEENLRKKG

SMILES	pKd [1]	AC50 (p53 Y220C) [nM]	pIC50 (NUGC3 cells (p53 Y220C))	pIC50 [2]
CN1CC[C@@H](Nc2cccn3c(SC(F)(F)F)c(-c4noc(CNC(=O)C56CC(NC(=O)OC(C)(C)C)(C5)C6)n4)cc23)[C@@H](F)C1 [Example 45, tert-butyl N-[3-({[3-(8-{[(3S,4R)-3-fluoro-1-methylpiperidin-4-yl]amino}-3-[(trifluoromethyl)sulfanyl]indolizin-2-yl)-1,2,4-oxadiazol-5-yl]methyl}carbamoyl)bicyclo[1.1.1]pentan-1-yl]carbamate]	7.00 to 8.00	≥ 3000	5.52 to 5.82	≤ 5.52
CN1CC[C@@H](Nc2cccn3c(SC(F)(F)F)c(-c4noc(CNC(=O)C5(c6ccc(F)cc6)CC5)n4)cc23)[C@@H](F)C1 [Example 46, N-{[3-(8-{[(3S,4R)-3-fluoro-1-methylpiperidin-4-yl]amino}-3-[(trifluoromethyl)sulfanyl]indolizin-2-yl)-1,2,4-oxadiazol-5-yl]methyl}-1-(4-fluorophenyl)cyclopropane-1-carboxamide]	6.00 to 7.00	≥ 3000	≤ 5.52	≤ 5.52
CN1CC[C@@H](Nc2cccn3c(SC(F)(F)F)c(-c4noc(CNC(=O)C5(C(F)(F)F)CC5)n4)cc23)[C@@H](F)C1 [Example 47, N-{[3-(8-{[(3S,4R)-3-fluoro-1-methylpiperidin-4-yl]amino}-3-[(trifluoromethyl)sulfanyl]indolizin-2-yl)-1,2,4-oxadiazol-5-yl]methyl}-1-(trifluoromethyl)cyclopropane-1-carboxamide]	7.00 to 8.00	≥ 3000	≤ 5.52	≤ 5.52
CN1CC[C@@H](Nc2cccn3c(SC(F)(F)F)c(-c4noc(CNC(=O)C(C)(C)O)n4)cc23)[C@@H](F)C1 [Example 49, N-{[3-(8-{[(3S,4R)-3-fluoro-1-methylpiperidin-4-yl]amino}-3-[(trifluoromethyl)sulfanyl]indolizin-2-yl)-1,2,4-oxadiazol-5-yl]methyl}-2-hydroxy-2-methylpropanamide]	7.00 to 8.00	1500 to 3000	≤ 5.52	5.52 to 5.82
C[C@H](NC(=O)C1CC1)c1nc(-c2cc3c(N[C@@H]4CCN(C)C[C@@H]4F)cccn3c2SC(F)(F)F)no1 [Example 52, N-[(1S)-1-[3-(8-{[(3S,4R)-3-fluoro-1-methylpiperidin-4-yl]amino}-3-[(trifluoromethyl)sulfanyl]indolizin-2-yl)-1,2,4-oxadiazol-5-yl]ethyl]cyclopropanecarboxamide]	7.00 to 8.00	≥ 3000	≤ 5.52	≤ 5.52
CN1CC[C@@H](Nc2cccn3c(SC(F)(F)F)c(-c4noc(CNC(=O)c5ccc(-c6ccn[nH]6)s5)n4)cc23)[C@@H](F)C1 [Example 56, N-{[3-(8-{[(3S,4R)-3-fluoro-1-methylpiperidin-4-yl]amino}-3-[(trifluoromethyl)sulfanyl]indolizin-2-yl)-1,2,4-oxadiazol-5-yl]methyl}-5-(2H-pyrazol-3-yl)thiophene-2-carboxamide]	7.00 to 8.00	750 to 1500	> 6.12	> 6.12
CC(C)C(=O)NCc1nc(-c2cc3c(N[C@@H]4CCN(C)C[C@@H]4F)cccn3c2SC(F)(F)F)no1 [Example 60, N-{[3-(8-{[(3S,4R)-3-fluoro-1-methylpiperidin-4-yl]amino}-3-[(trifluoromethyl)sulfanyl]indolizin-2-yl)-1,2,4-oxadiazol-5-yl]methyl}-2-methylpropanamide]	7.00 to 8.00	1500 to 3000	5.52 to 5.82	5.52 to 5.82
COC(C)(C)C(=O)NCc1nc(-c2cc3c(N[C@@H]4CCN(C)C[C@@H]4F)cccn3c2SC(F)(F)F)no1 [Example 61, N-{[3-(8-{[(3S,4R)-3-fluoro-1-methylpiperidin-4-yl]amino}-3-[(trifluoromethyl)sulfanyl]indolizin-2-yl)-1,2,4-oxadiazol-5-yl]methyl}-2-methoxy-2-methylpropanamide]	7.00 to 8.00	≥ 3000	≤ 5.52	≤ 5.52

Now from value to compound, other results behind:

pKd [1]	AC50 (p53 Y220C) [nM]	SMILES	pIC50 (NUGC3 cells (p53 Y220C))	pIC50 [2]
> 8.00	< 750	CN1CC[C@@H](Nc2cccn3c(SC(F)(F)F)c(-c4noc(CNC(=O)c5ccc(S(C)(=O)=O)cc5)n4)cc23)[C@@H](F)C1 [Example 42, N-{[3-(8-{[(3S,4R)-3-fluoro-1-methylpiperidin-4-yl]amino}-3-[(trifluoromethyl)sulfanyl]indolizin-2-yl)-1,2,4-oxadiazol-5-yl]methyl}-4-methanesulfonylbenzamide]	> 6.12	> 6.12
7.00 to 8.00	750 to 1500	CN1CC[C@@H](Nc2cccn3c(SC(F)(F)F)c(-c4noc(CNC(=O)COc5ccc(C#N)cc5)n4)cc23)[C@@H](F)C1 [Example 43, 2-(4-cyanophenoxy)-N-{[3-(8-{[(3S,4R)-3-fluoro-1-methylpiperidin-4-yl]amino}-3-[(trifluoromethyl)sulfanyl]indolizin-2-yl)-1,2,4-oxadiazol-5-yl]methyl}acetamide]	5.82 to 6.12	5.82 to 6.12
> 8.00	< 750	CN1CC[C@@H](Nc2cccn3c(SC(F)(F)F)c(-c4noc(CNC(=O)C#CC5(NC(=O)OC(C)(C)C)CC5)n4)cc23)[C@@H](F)C1 [Example 44, tert-butyl N-{1-[2-({[3-(8-{[(3S,4R)-3-fluoro-1-methylpiperidin-4-yl]amino}-3-[(trifluoromethyl)sulfanyl]indolizin-2-yl)-1,2,4-oxadiazol-5-yl]methyl}carbamoyl)eth-1-yn-1-yl]cyclopropyl}carbamate]	5.82 to 6.12	> 6.12
> 8.00	< 750	CNC(=O)c1ccc(NCc2nc(-c3cc4c(N[C@@H]5CCN(C)C[C@@H]5F)cccn4c3SC(F)(F)F)no2)nc1 [Example 54, 6-({[3-(8-{[(3S,4R)-3-fluoro-1-methylpiperidin-4-yl]amino}-3-[(trifluoromethyl)sulfanyl]indolizin-2-yl)-1,2,4-oxadiazol-5-yl]methyl}amino)-N-methylpyridine-3-carboxamide]	> 6.12	> 6.12
> 8.00	< 750	CNC(=O)c1ccc(C(=O)NCc2nc(-c3cc4c(N[C@@H]5CCN(C)C[C@@H]5F)cccn4c3SC(F)(F)F)no2)cc1 [Example 57, N1—{[3-(8-{[(3S,4R)-3-fluoro-1-methylpiperidin-4-yl]amino}-3-[(trifluoromethyl)sulfanyl]indolizin-2-yl)-1,2,4-oxadiazol-5-yl]methyl}-N4-methylbenzene-1,4-dicarboxamide]	> 6.12	> 6.12
> 8.00	< 750	CNC(=O)c1cccc(C(=O)NCc2nc(-c3cc4c(N[C@@H]5CCN(C)C[C@@H]5F)cccn4c3SC(F)(F)F)no2)c1 [Example 58, N1—{[3-(8-{[(3S,4R)-3-fluoro-1-methylpiperidin-4-yl]amino}-3-[(trifluoromethyl)sulfanyl]indolizin-2-yl)-1,2,4-oxadiazol-5-yl]methyl}-N3-methylbenzene-1,3-dicarboxamide]	> 6.12	> 6.12
> 8.00	750 to 1500	CC(=O)NCc1nc(-c2cc3c(N[C@@H]4CCN(C)C[C@@H]4F)cccn3c2SC(F)(F)F)no1 [Example 59, N-{[3-(8-{[(3S,4R)-3-fluoro-1-methylpiperidin-4-yl]amino}-3-[(trifluoromethyl)sulfanyl]indolizin-2-yl)-1,2,4-oxadiazol-5-yl]methyl}acetamide]	5.82 to 6.12	> 6.12
